Source: PMC5344255, “Design, Synthesis and Biochemical Evaluation of Novel Selective Estrogen Receptor Ligand Conjugates Incorporating an Endoxifen-Combretastatin Hybrid Scaffold” (Biomedicines, 2016)

How the values were obtained:
Assay type in all cases: cell-based
[1] = tested on: MDA-MB-231 human breast cancer cells; assay: Lactate dehydrogenase (LDH) cytotoxicity assay in MDA-MB-231; settings: % cell lysis at 10 μM
Procedure: (§1) In this assay, the release of cytoplasmic lactate dehydrogenase (LDH) is used as a measure of cell lysis. MCF-7 and MDA-MB-231 cells were seeded at a density of 1 × 10^4 cells/well in a 96-well plate and incubated for 24 h. The cells were then dosed with 2 μL volumes of the test compounds, over the concentration range 1 nM–50 μM. Cytotoxicity was determined using the CytoTox 96 nonradioactive cytotoxicity assay (Promega, Madison, WI, USA) following the manufacturer’s protocol.

[2] = tested on: MDA-MB-231 human breast cancer cells; assay: MTT assay for antiproliferative effects in MDA-MB-231; settings: MDA-MB-231, MTT assay
Procedure: The human breast carcinoma cell line, MCF-7, was purchased from the European Collection of Animal Cell Cultures (ECACC). The cells were maintained in MCF-7 complete medium; consisting of Eagle’s Minimum Essential Medium (MEM) supplemented with 10% (v/v) Foetal Bovine Serum (FBS), 2 mM L-glutamine, 100 μg/mL penicillin/streptomycin and 1% (v/v) non-essential amino acids. […] The human breast carcinoma cell line, MDA, was purchased from the European Collection of Animal Cell Cultures (ECACC). The cells were maintained in MDA complete medium; consisting of Dulbecco’s Modified Eagle’s Medium (D-MEM) supplemented with 10% (v/v) Foetal Bovine Serum (FBS), 2 mM L-glutamine, 100 μg/mL penicillin/streptomycin. […] The MTT assay was performed according to the reported protocol. The tetrazolium salt, 3-(4,5-dimethylthiazol-2-yl)-2,5-diphenyltetrazolium bromide (MTT) is taken up only by metabolically active cells and cleaved to form a formazan dye by mitochondrial dehydrogenases. […] Graphs of percentage cell viability versus concentration of the subject compound were processed using PRISM [31].

[3] = tested on: MCF-7 human breast cancer cells; assay: Lactate dehydrogenase (LDH) cytotoxicity assay in MCF-7; settings: % cell lysis at 10 µM
Procedure: as §1

[4] = tested on: MCF-7 human breast cancer cells; assay: MTT assay for antiproliferative effects in MCF-7; settings: for inhibition at 10 µM: MCF7, MCF-7, read-out: growth inhibition
Procedure: The human breast carcinoma cell line, MCF-7, was purchased from the European Collection of Animal Cell Cultures (ECACC). The cells were maintained in MCF-7 complete medium; consisting of Eagle’s Minimum Essential Medium (MEM) supplemented with 10% (v/v) Foetal Bovine Serum (FBS), 2 mM L-glutamine, 100 μg/mL penicillin/streptomycin and 1% (v/v) non-essential amino acids. Cell cultures were maintained at 37 °C under a humidified atmosphere of 5% CO2/95% O2. The human breast carcinoma cell line, MDA, was purchased from the European Collection of Animal Cell Cultures (ECACC). The cells were maintained in MDA complete medium; consisting of Dulbecco’s Modified Eagle’s Medium (D-MEM) supplemented with 10% (v/v) Foetal Bovine Serum (FBS), 2 mM L-glutamine, 100 μg/mL penicillin/streptomycin. Cell cultures were maintained at 37 °C under a humidified atmosphere of 5% CO2/95% O2. The MTT assay was performed according to the reported protocol. The tetrazolium salt, 3-(4,5-dimethylthiazol-2-yl)-2,5-diphenyltetrazolium bromide (MTT) is taken up only by metabolically active cells and cleaved to form a formazan dye by mitochondrial dehydrogenases. Assays where repeated in three experiments performed in triplicate (unless otherwise stated) and reported results represent the mean value ± standard error mean. Graphs of percentage cell viability versus concentration of the subject compound were processed using PRISM [31].

[5] = Homo sapiens, MCF7, MCF-7, MTT assay, mean of at least three experiments in triplicate
[6] = Homo sapiens, MCF7, MCF-7, MTT assay, values in nM
[7] = MCF-7, MTT assay, mean of at least three experiments in triplicate

| IC50 [2] [µM] | IC50 [4, 5] [nM] | Structure (SMILES) | % Cell Death at 10 μM [1] [%] | % Cell Death at 10 μM [3] [%] | also measured |
| --- | --- | --- | --- | --- | --- |
| 30.6 | 87 | CCC(=C(c1ccc(O)cc1)c1ccc(OCCN(C)C(=O)/C(=C/c2ccc(OC)cc2)c2cc(OC)c(OC)c(OC)c2)cc1)c1ccccc1 (mixture of isomers) [Compound 29, (E)-N-(2-{4-[(E/Z)-1-(4-Hydroxyphenyl)-2-phenylbut-1-enyl]phenoxy}-ethyl)-3-(4-methoxyphenyl)-N-methyl-2-(3,4,5-trimethoxyphenyl)acrylamide] | 2 | 12 |  |
| 6.29 | 43 | CCC(=C(c1ccc(O)cc1)c1ccc(OCCN(C)C(=O)/C(=C/c2ccc(OC)cc2)c2cc(OC)c(OC)c(OC)c2)cc1)c1ccc(O)cc1 (mixture of isomers) [Compound 30, (E)-N-(2-{4-[(E/Z)-1,2-Bis-(4-hydroxyphenyl)but-1-enyl]phenoxy}ethyl)-3-(4-methoxyphenyl)-N-methyl-2-(3,4,5-trimethoxyphenyl)acrylamide] | 7 | 19 |  |
| 5.23 | 1470 | CCC(=C(c1ccc(O)cc1)c1ccc(OCCN(C)C(=O)/C(=C/c2ccc3c(c2)OCO3)c2ccc(OC)cc2)cc1)c1ccccc1 (mixture of isomers) [Compound 33, (E)-3-Benzo[1,3]dioxol-5-yl-N-(2-{4-[(E/Z)-1-(4-hydroxyphenyl)-2-phenylbut-1-enyl]phenoxy}ethyl)-2-(4-methoxyphenyl)-N-methylacrylamide] | 0 | 8 |  |
| 0.68 | 49 | CCC(=C(c1ccc(O)cc1)c1ccc(OCCN(C)C(=O)/C(=C/c2ccc3c(c2)OCO3)c2ccc(OC)cc2)cc1)c1ccc(O)cc1 (mixture of isomers) [Compound 34, (E)-3-Benzo[1,3]dioxol-5-yl-N-(2-{4-[(E/Z)-1,2-bis-(4-hydroxyphenyl)but-1-enyl]phenoxy}ethyl)-2-(4-methoxyphenyl)-N-methylacrylamide] | 16 | 6 |  |
| 2.16 | 1510 | CCC(=C(c1ccc(O)cc1)c1ccc(OCCN(C)C(=O)/C(=C/c2ccc3ccccc3c2)c2cc(OC)c(OC)c(OC)c2)cc1)c1ccccc1 (mixture of isomers) [Compound 35, (E)-N-(2-{4-[(E/Z)-1-(4-Hydroxyphenyl)-2-phenylbut-1-enyl]phenoxy}ethyl)-N-methyl-3-naphthalen-2-yl-2-(3,4,5-trimethoxyphenyl) acrylamide] | 0 | 0 |  |
| 4.32 | 3620 | CCC(=C(c1ccc(O)cc1)c1ccc(OCCN(C)C(=O)/C(=C/c2ccc3ccccc3c2)c2cc(OC)c(OC)c(OC)c2)cc1)c1ccc(O)cc1 (mixture of isomers) [Compound 36, (E)-N-(2-{4-[(E/Z)-1,2-Bis-(4-hydroxyphenyl)but-1-enyl]phenoxy}ethyl)-N-methyl-3-naphthalen-2-yl-2-(3,4,5-trimethoxyphenyl)acrylamide] | 0 | 3 | IC50 [4, 6]: 1.51 nM |
|  | 1750 | CCC(=C(c1ccc(O)cc1)c1ccc(OCCN(C)C(=O)/C(=C/c2ccc(C)cc2)c2cc(OC)c(OC)c(OC)c2)cc1)c1ccccc1 (mixture of isomers) [Compound 37, (E)-N-(2-{4-[(E/Z)-1-(4-Hydroxyphenyl)-2-phenylbut-1-enyl]phenoxy}ethyl)-N-methyl-3-p-tolyl-2-(3,4,5-trimethoxyphenyl)acrylamide] |  | 2 | IC50 [4, 6]: 3.62 nM |
|  | 372 | CCC(=C(c1ccc(O)cc1)c1ccc(OCCN(C)C(=O)/C(=C/c2ccc(C)cc2)c2cc(OC)c(OC)c(OC)c2)cc1)c1ccc(O)cc1 (mixture of isomers) [Compound 38, (E)-N-(2-{4-[(E/Z)-1,2-Bis-(4-hydroxyphenyl)but-1-enyl]phenoxy}ethyl)-N-methyl-3-p-tolyl-2-(3,4,5-trimethoxyphenyl)acrylamide] |  | 12 |  |
|  | 790 | CCC(=C(c1ccc(O)cc1)c1ccc(OCCN(C)C(=O)/C(=C/c2ccc(SC)cc2)c2cc(OC)c(OC)c(OC)c2)cc1)c1ccccc1 (mixture of isomers) [Compound 39, (E)-N-(2-{4-[(E/Z)-1-(4-Hydroxyphenyl)-2-phenylbut-1-enyl]phenoxy}ethyl)-N-methyl-3-(4-methylsulfanylphenyl)-2-(3,4,5-trimethoxyphenyl) acrylamide] |  | 3 |  |
|  | 64 | CCC(=C(c1ccc(O)cc1)c1ccc(OCCN(C)C(=O)/C(=C/c2ccc(SC)cc2)c2cc(OC)c(OC)c(OC)c2)cc1)c1ccc(O)cc1 (mixture of isomers) [Compound 40, (E)-N-(2-{4-[(E/Z)-1,2-Bis-(4-hydroxyphenyl)but-1-enyl]phenoxy}ethyl)-N-methyl-3-(4-methylsulfanylphenyl)-2-(3,4,5-trimethoxyphenyl)acrylamide] |  | 2 |  |
| > 50 | 1030 | CCC(=C(c1ccc(O)cc1)c1ccc(OCCN(C)C(=O)/C(=C/c2ccc(Br)cc2)c2cc(OC)c(OC)c(OC)c2)cc1)c1ccccc1 (mixture of isomers) [Compound 41, (E)-3-(4-Bromophenyl)-N-(2-{4-[(E/Z)-1-(4-hydroxyphenyl)-2-phenylbut-1-enyl]phenoxy}ethyl)-N-methyl-2-(3,4,5-trimethoxyphenyl)acrylamide] | 0 | 5 |  |
| 18 |  | CC/C(=C(\c1ccc(O)cc1)c1ccc(OCCN(C)C)cc1)c1ccccc1 [4-Hydroxytamoxifen, reference compound] | 0 |  |  |
|  | 120 | COc1ccc(/C=C(/C(=O)O)c2cc(OC)c(OC)c(OC)c2)cc1O [Compound 13] |  |  |  |
|  | < 10000 | COc1ccc(/C=C(/C(=O)O)c2cc(OC)c(OC)c(OC)c2)cc1 [Compound 14] |  |  | IC50 [4, 7]: 7800 nM |
|  | > 50000 | COc1ccc(/C(=C\c2cc(OC)c(OC)c(OC)c2)C(=O)O)cc1 [Compound 23] |  |  |  |
|  |  | COc1ccc(/C(=C\c2ccc3c(c2)OCO3)C(=O)O)cc1 [Compound 25] |  |  | IC50 [4, 7]: > 50000 nM |
|  | > 50000 | COc1ccc(/C(=C\c2cc(OC)c(OC)c(OC)c2)C(=O)N2CCCC2)cc1 [Compound 48, (E)-2-(4-methoxyphenyl)-1-(pyrrolidin-1-yl)-3-(3,4,5-trimethoxyphenyl)prop-2-en-1-one] |  |  |  |
|  | > 50000 | COc1ccc(/C=C(/C(=O)N2CCCCC2)c2cc(OC)c(OC)c(OC)c2)cc1O [Compound 49, (E)-3-(3-hydroxy-4-methoxyphenyl)-1-(piperidin-1-yl)-2-(3,4,5-trimethoxyphenyl)prop-2-en-1-one] |  |  |  |
|  | > 50000 | COc1ccc(/C=C(/C(=O)N2CCCC2)c2cc(OC)c(OC)c(OC)c2)cc1 [Compound 52, (E)-3-(4-Methoxyphenyl)-1-(pyrrolidin-1-yl)-2-(3,4,5-trimethoxyphenyl)prop-2-en-1-one] |  |  |  |
|  |  | COc1ccc(/C=C(/C(=O)N2CCCCC2)c2cc(OC)c(OC)c(OC)c2)cc1 [Compound 53, (E)-3-(4-Methoxyphenyl)-1-(piperidin-1-yl)-2-(3,4,5-trimethoxyphenyl)prop-2-en-1-one] |  |  | inhibition at 10 µM ([4]; Homo sapiens): 35% |
|  |  | COc1ccc(/C=C(/C(=O)N2CCCCC2)c2cc(OC)c(OC)c(OC)c2)cc1N [Compound 55, (E)-3-(3-Amino-4-methoxyphenyl)-1-(piperidin-1-yl)-2-(3,4,5-trimethoxyphenyl)prop-2-en-1-one] |  |  | inhibition at 10 µM ([4]; Homo sapiens): 34% |

| Structure (SMILES) | IC50 [2] [µM] | IC50 [4, 5] [nM] | % Cell Death at 10 μM [1] [%] | % Cell Death at 10 μM [3] [%] | also measured |
| --- | --- | --- | --- | --- | --- |
| COc1ccc(/C=C(/C(=O)O)c2cc(OC)c(OC)c(OC)c2)cc1F [Compound 15] |  | 55100 |  |  |  |
| COc1ccc(/C=C(/C(=O)N2CCCC2)c2cc(OC)c(OC)c(OC)c2)cc1N [Compound 54, (E)-3-(3-Amino-4-methoxyphenyl)-1-(pyrrolidin-1-yl)-2-(3,4,5-trimethoxyphenyl)prop-2-en-1-one] |  | > 50000 |  |  |  |
